The results in this text go back to US9573899B2, “USP7 inhibitor compounds and methods of use” (Genentech, Inc., priority 2015, dated 2017).

In the test the target is T1, USP7, full-length, native C-Terminus (Homo sapiens, UniProt Q93009).
T1 construct: USP7, full-length, native C-Terminus, 0.2 nM
The test is described as follows: Biochemical USP7 assay with Ubiquitin-Rho110 substrate, compounds pre-incubated with USP7 (USP7_Ub-Rho preInc). As to conditions: compounds pre-mixed with USP7, 1 hour incubation, before substrate; read-out: USP7 Ub-Rho preInc (IC50). The method, then: Biochemical USP7 assays using Ubiquitin-Rho110 as a substrate: The final assay conditions were as follows: The Reaction Buffer consisted of: 50 mM Tris (pH 7.5), 0.01% (v/v) Triton X-100, 2.5 mM Dithiothreitol, 0.1% (w/v) bovine gamma globulin (Sigma cat #G5009-25G); USP7, full-length, native C-Terminus, 0.2 nM; the substrate, Ubiquitin-Rho110 (Boston Biochem cat #U-555), 1 uM. Reactions were carried out for 1 hour at room temperature, in black 20 μL volume polystyrene ProxiPlate 384 F Plus® (PerkinElmer cat #6008260).
Test compounds, including a control USP7 inhibitor (Ub-aldehyde, Boston Biochem cat #U-201) were serially diluted in DMSO, in 384 well clear V-bottom polypropylene plates (Greiner cat #781280). Compounds in DMSO were diluted 10-fold into Reaction Buffer, to achieve 3-fold the final desired concentration. The substrate, Ubiquitin-Rho110 (Boston Biochem cat #U-555), was prepared at 3 μM (3-fold the final concentration) and 5 ul was dispensed into the reaction plate. 5 ul of the compounds (diluted in Reaction Buffer at 3-fold the final concentration) were transferred to the reaction plate. 5 ul of 0.6 nM USP7 (diluted in Reaction Buffer at 3-fold the final concentration) was transferred to the reaction plate to initiate the reaction. After 1 hour incubation at room temperature the reaction was quenched by the addition of 5 ul of 400 mM acetic acid. The enzymatic product was measured by quantifying the fluorescence signal of cleaved Rhodamine-110 using excitation at 485 nm and emission at 535 nm. When pre-incubation of USP7 with compounds was required, the order of addition of reagents was modified to pre-mix the compounds with USP7 (with a 1 hour incubation period), prior to the addition of the substrate and the initiation of the reaction period. Percentage inhibition values were calculated relative to a no enzyme control and a uninhibited enzyme control. Curve fitting and IC50 calculations were carried out using Genedata Screener software.

T1 sequence (Q93009 whole entry): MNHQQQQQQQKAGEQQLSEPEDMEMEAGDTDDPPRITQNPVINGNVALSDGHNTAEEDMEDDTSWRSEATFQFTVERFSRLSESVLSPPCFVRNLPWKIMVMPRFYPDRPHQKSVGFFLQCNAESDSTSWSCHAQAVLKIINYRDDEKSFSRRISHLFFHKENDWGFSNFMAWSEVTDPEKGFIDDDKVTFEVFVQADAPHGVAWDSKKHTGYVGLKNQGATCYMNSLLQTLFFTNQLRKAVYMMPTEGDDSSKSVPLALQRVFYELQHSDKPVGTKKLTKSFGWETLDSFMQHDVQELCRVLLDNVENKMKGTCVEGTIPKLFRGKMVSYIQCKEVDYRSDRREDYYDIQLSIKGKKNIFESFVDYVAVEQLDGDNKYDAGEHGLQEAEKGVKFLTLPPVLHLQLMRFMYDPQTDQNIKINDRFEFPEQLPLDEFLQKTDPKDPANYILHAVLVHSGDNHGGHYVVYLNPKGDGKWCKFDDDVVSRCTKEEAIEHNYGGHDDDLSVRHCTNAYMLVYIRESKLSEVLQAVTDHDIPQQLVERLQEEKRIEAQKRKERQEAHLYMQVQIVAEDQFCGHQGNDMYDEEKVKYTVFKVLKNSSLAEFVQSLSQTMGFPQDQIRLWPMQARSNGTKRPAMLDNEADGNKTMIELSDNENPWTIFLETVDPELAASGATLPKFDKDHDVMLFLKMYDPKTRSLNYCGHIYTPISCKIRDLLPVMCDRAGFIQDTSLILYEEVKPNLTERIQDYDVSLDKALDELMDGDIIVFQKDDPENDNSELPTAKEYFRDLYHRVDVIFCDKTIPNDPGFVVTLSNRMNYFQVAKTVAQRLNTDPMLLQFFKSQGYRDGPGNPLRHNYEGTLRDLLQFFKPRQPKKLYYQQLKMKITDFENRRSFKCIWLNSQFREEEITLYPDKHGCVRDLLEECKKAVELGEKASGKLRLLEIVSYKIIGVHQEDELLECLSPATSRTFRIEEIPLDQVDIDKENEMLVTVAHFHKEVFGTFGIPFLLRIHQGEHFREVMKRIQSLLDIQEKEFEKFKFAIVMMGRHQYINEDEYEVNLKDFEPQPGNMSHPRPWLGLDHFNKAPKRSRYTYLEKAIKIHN

As a reminder, the IC50 is the concentration needed to halve the response being measured. For the compound `CCc1c(-c2cccc(NC(C)=O)c2)cnc(N)c1-c1ccc2cn[nH]c2c1` [Compound 14, N-[3-[6-amino-4-ethyl-5-(1H-indazol-6-yl)-3-pyridyl]phenyl]acetamide], the IC50 worked out at 136 µM. The value for `CCCNc1ncc(-c2ccc(O)cc2)c(CC)c1-c1ccc(O)cc1` [Compound 15, 4-[4-ethyl-5-(4-hydroxyphenyl)-6-(propylamino)-3-pyridyl]phenol] was 10.1 µM; that for `CCc1c(-c2ccc(O)cc2)cnc(N)c1-c1ccccc1` [Compound 16, 4-(6-amino-4-ethyl-5-phenyl-3-pyridyl)phenol] was 60.7 µM; that for `CCc1c(-c2ccc(O)cc2)cnc(N)c1-c1ccc(F)c(F)c1` [Compound 18, 4-[6-amino-5-(3,4-difluorophenyl)-4-ethyl-3-pyridyl]phenol] was above 20 µM.

Take `CCc1c(-c2ccc(O)cc2)cnc(N)c1-c1cccc(C#N)c1` [Compound 19, 3-[2-amino-4-ethyl-5-(4-hydroxyphenyl)-3-pyridyl]benzonitrile]: the IC50 was 9.9 µM. Under `CCc1c(-c2ccc(O)cc2)cnc(N)c1-c1ccc(NC(=O)OC(C)(C)C)cc1` [Compound 21, tert-butyl N-[4-[2-amino-4-ethyl-5-(4-hydroxyphenyl)-3-pyridyl]phenyl]carbamate] stands above 20 µM; under `CCc1c(-c2ccc(O)cc2)cnc(N)c1-c1cccc(N2CCOCC2)c1` [Compound 22, 4-[6-amino-4-ethyl-5-(3-morpholinophenyl)-3-pyridyl]phenol], above 63.3 µM; under `CCc1c(-c2ccc(O)cc2)cnc(N)c1-c1cccc(CNC(=O)OC(C)(C)C)c1` [Compound 23, tert-butyl N-[[3-[2-amino-4-ethyl-5-(4-hydroxyphenyl)-3-pyridyl]phenyl]methyl]carbamate], above 6.3 µM. The value for `CCc1c(-c2ccc(O)cc2)cnc(N)c1-c1cccc(COC)c1` [Compound 24, 4-[6-amino-4-ethyl-5-[3-(methoxymethyl)phenyl]-3-pyridyl]phenol] was above 63.3 µM. Under `CCc1c(-c2ccc(O)cc2)cnc(N)c1-c1cccc(CN2CCOCC2)c1` [Compound 26, 4-[6-amino-4-ethyl-5-[3-(morpholinomethyl)phenyl]-3-pyridyl]phenol] stands 145 µM.

For the compound `CCc1c(-c2ccc(O)cc2)cnc(N)c1-c1cccc(CC#N)c1` [Compound 27, 2-[3-[2-amino-4-ethyl-5-(4-hydroxyphenyl)-3-pyridyl]phenyl]acetonitrile], the IC50 amounted to 48.7 µM. The value for `CCc1c(-c2ccc(O)cc2)cnc(N)c1-c1ccc(N(C)C(=O)OC(C)(C)C)cc1` [Compound 28, tert-butyl N-[4-[2-amino-4-ethyl-5-(4-hydroxyphenyl)-3-pyridyl]phenyl]-N-methyl-carbamate] was above 20 µM; that for `CCc1c(-c2ccc(O)cc2)cnc(N)c1-c1cncc(C#N)c1` [Compound 29, 5-[2-amino-4-ethyl-5-(4-hydroxyphenyl)-3-pyridyl]pyridine-3-carbonitrile] was 18.6 µM. Under `CCc1c(-c2ccc(O)cc2)cnc(N)c1-c1ccc(NS(C)(=O)=O)cc1` [Compound 30, N-[4-[2-amino-4-ethyl-5-(4-hydroxyphenyl)-3-pyridyl]phenyl]methanesulfonamide] stands 19.6 µM. The value for `CCc1c(-c2ccc(O)cc2)cnc(N)c1-c1cccc(NC(=O)OC(C)(C)C)c1` [Compound 31, tert-butyl N-[3-[2-amino-4-ethyl-5-(4-hydroxyphenyl)-3-pyridyl]phenyl]carbamate] was above 20 µM. With `CCc1c(-c2cncnc2)cnc(N)c1-c1ccc(O)cc1` [Compound 32, 4-(2-amino-4-ethyl-5-pyrimidin-5-yl-3-pyridyl)phenol], the IC50 amounted to 69.9 µM.

For the compound `CCc1c(-c2ccccc2C)cnc(N)c1-c1ccc(O)cc1` [Compound 33, 4-[2-amino-4-ethyl-5-(o-tolyl)-3-pyridyl]phenol], the concentration for half-maximal inhibition (IC50) was above 63.3 µM. Under `CCc1c(-c2ccc(F)cc2)cnc(N)c1-c1ccc(O)cc1` [Compound 34, 4-[2-amino-4-ethyl-5-(4-fluorophenyl)-3-pyridyl]phenol] stands 19.9 µM; under `CCc1c(-c2ccc(C)nc2)cnc(N)c1-c1ccc(O)cc1` [Compound 35, 4-[2-amino-4-ethyl-5-(6-methyl-3-pyridyl)-3-pyridyl]phenol], 31.2 µM. The value for `CCc1c(-c2ccc(C)cc2)cnc(N)c1-c1ccc(O)cc1` [Compound 36, 4-[2-amino-4-ethyl-5-(p-tolyl)-3-pyridyl]phenol] was 18.1 µM; that for `CCc1c(-c2ccccc2)cnc(N)c1-c1ccc(O)cc1` [Compound 37, 4-(2-amino-4-ethyl-5-phenyl-3-pyridyl)phenol] was 17.8 µM.

In the case of `CCc1c(-c2ccncc2)cnc(N)c1-c1ccc(O)cc1` [Compound 38, 4-[2-amino-4-ethyl-5-(4-pyridyl)-3-pyridyl]phenol], the half-maximal inhibitory concentration (IC50) turned out to be 52.4 µM.

As to `CCc1c(-c2cccnc2)cnc(N)c1-c1ccc(O)cc1` [Compound 39, 4-[2-amino-4-ethyl-5-(3-pyridyl)-3-pyridyl]phenol], the IC50 is 41 µM. The value for `CCc1c(-c2ccc(O)cc2)cnc(NCC2CC2)c1-c1ccc(O)cc1` [Compound 40, 4-[6-(cyclopropylmethylamino)-4-ethyl-5-(4-hydroxyphenyl)-3-pyridyl]phenol] was 19.9 µM.

In the case of `CCc1c(-c2ccc(O)cc2)cnc(N)c1-c1cccc(NS(C)(=O)=O)c1` [Compound 41, N-[3-[2-amino-4-ethyl-5-(4-hydroxyphenyl)-3-pyridyl]phenyl]methanesulfonamide], the IC50 stood at 118 µM.

Take `CCc1c(-c2cccc(N3CCNCC3)c2)cnc(N)c1-c1ccc(O)cc1` [Compound 42, 4-[2-amino-4-ethyl-5-(3-piperazin-1-ylphenyl)-3-pyridyl]phenol]: the IC50 is 165 µM. Under `CCc1c(-c2ccc(O)cc2)cnc(NC)c1-c1ccc(O)cc1` [Compound 43, 4-[4-ethyl-5-(4-hydroxyphenyl)-6-(methylamino)-3-pyridyl]phenol] stands 6.8 µM; under `CCc1c(-c2ccc(Cl)c(C)c2)cnc(N)c1-c1ccc(O)cc1` [Compound 44, 4-[2-amino-5-(4-chloro-3-methyl-phenyl)-4-ethyl-3-pyridyl]phenol], above 20 µM; under `CCc1c(-c2cccc(C(N)=O)c2)cnc(N)c1-c1ccc(O)cc1` [Compound 46, 3-[6-amino-4-ethyl-5-(4-hydroxyphenyl)-3-pyridyl]benzamide], 114 µM. Under `CCc1c(-c2cccc(C(C)C)c2)cnc(N)c1-c1ccc(O)cc1` [Compound 47, 4-[2-amino-4-ethyl-5-(3-isopropylphenyl)-3-pyridyl]phenol] stands above 20 µM.

As to `CCc1c(-c2ccc(F)c(F)c2)cnc(N)c1-c1ccc(O)cc1` [Compound 48, 4-[2-amino-5-(3,4-difluorophenyl)-4-ethyl-3-pyridyl]phenol], the half-inhibitory concentration (IC50) came to 11.6 µM.

For the compound `CCc1c(-c2cccc(C#N)c2)cnc(N)c1-c1ccc(O)cc1` [Compound 49, 3-[6-amino-4-ethyl-5-(4-hydroxyphenyl)-3-pyridyl]benzonitrile], the IC50 turned out to be 5.4 µM. Under `CCc1c(-c2ccccc2F)cnc(N)c1-c1ccc(O)cc1` [Compound 50, 4-[2-amino-4-ethyl-5-(2-fluorophenyl)-3-pyridyl]phenol] stands 14.2 µM. The value for `CCc1c(-c2ccc(C#N)cc2)cnc(N)c1-c1ccc(O)cc1` [Compound 51, 4-[6-amino-4-ethyl-5-(4-hydroxyphenyl)-3-pyridyl]benzonitrile] was 44.2 µM.

In the case of `CCc1c(-c2cccc(OC)c2)cnc(N)c1-c1ccc(O)cc1` [Compound 52, 4-[2-amino-4-ethyl-5-(3-methoxyphenyl)-3-pyridyl]phenol], the IC50 amounted to 50.1 µM. Regarding `CCc1c(-c2ccc(OC)cc2)cnc(N)c1-c1ccc(O)cc1` [Compound 53, 4-[2-amino-4-ethyl-5-(4-methoxyphenyl)-3-pyridyl]phenol], the IC50 was above 20 µM. The value for `CCc1c(-c2cccc(C(=O)N(C)C)c2)cnc(N)c1-c1ccc(O)cc1` [Compound 54, 3-[6-amino-4-ethyl-5-(4-hydroxyphenyl)-3-pyridyl]-N,N-dimethyl-benzamide] was 161 µM. As to `CCc1c(-c2ccc(CO)cc2)cnc(N)c1-c1ccc(O)cc1` [Compound 55, 4-[2-amino-4-ethyl-5-[4-(hydroxymethyl)phenyl]-3-pyridyl]phenol], the IC50 was above 20 µM. The value for `CCc1c(-c2cccc(C)c2)cnc(N)c1-c1ccc(O)cc1` [Compound 57, 4-[2-amino-4-ethyl-5-(m-tolyl)-3-pyridyl]phenol] was above 20 µM; that for `CCc1c(-c2ccc(=O)[nH]c2)cnc(N)c1-c1ccc(O)cc1` [Compound 58, 5-[6-amino-4-ethyl-5-(4-hydroxyphenyl)-3-pyridyl]-1H-pyridin-2-one] was 93.3 µM.
